Assay results: ChEMBL document CHEMBL4765487, “From a Designer Drug to the Discovery of Selective Cannabinoid Type 2 Receptor Agonists with Favorable Pharmacokinetic Profiles for the Treatment of Systemic Sclerosis” (J Med Chem, 2021)
pEC50, pIC50: −log10 of the molar value. The source made the active and inactive calls. No cut-off for these calls is given here.

Legend:
Cannabinoid receptor 1 [1] = biological target: T1, Cannabinoid receptor 1 (Homo sapiens, UniProt P21554); test: Agonist activity at human CB1 receptor expressing CHO cells co-expressing Galpha16 by calcium mobilization assay; type: functional, cell-based
T1 sequence (P21554 whole entry): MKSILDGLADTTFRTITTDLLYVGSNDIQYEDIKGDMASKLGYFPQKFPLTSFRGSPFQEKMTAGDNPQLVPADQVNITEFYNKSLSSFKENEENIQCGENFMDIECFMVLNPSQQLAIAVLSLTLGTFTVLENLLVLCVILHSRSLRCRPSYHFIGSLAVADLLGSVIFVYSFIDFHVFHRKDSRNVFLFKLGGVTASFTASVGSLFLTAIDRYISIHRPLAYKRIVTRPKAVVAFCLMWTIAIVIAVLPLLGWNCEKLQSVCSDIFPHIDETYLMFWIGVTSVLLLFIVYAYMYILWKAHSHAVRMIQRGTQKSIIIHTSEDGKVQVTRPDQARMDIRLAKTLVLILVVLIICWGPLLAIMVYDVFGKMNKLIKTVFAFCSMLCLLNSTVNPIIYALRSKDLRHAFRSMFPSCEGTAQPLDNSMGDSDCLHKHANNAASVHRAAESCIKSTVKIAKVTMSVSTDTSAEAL

Cannabinoid receptor 2 [2] = biological target: T2, Cannabinoid receptor 2 (Homo sapiens, UniProt P34972); test: Agonist activity at human CB2 receptor expressing CHO cells co-expressing Galpha16 by calcium mobilization assay; type: functional, cell-based
T2 sequence (P34972 whole entry): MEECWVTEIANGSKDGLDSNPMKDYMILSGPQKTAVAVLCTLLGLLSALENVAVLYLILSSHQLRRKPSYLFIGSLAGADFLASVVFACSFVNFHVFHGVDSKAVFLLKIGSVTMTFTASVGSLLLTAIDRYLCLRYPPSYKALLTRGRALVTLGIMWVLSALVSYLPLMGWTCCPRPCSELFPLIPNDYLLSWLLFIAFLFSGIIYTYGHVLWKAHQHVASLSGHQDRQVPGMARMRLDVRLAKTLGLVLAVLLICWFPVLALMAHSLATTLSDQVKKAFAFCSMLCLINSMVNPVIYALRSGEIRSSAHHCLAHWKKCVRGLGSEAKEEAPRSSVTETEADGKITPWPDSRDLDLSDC

Cannabinoid receptor 2 [3] = biological target: T2, Cannabinoid receptor 2; test: Agonist activity at human CB2 receptor expressing CHO cells co-expressing Galpha16 by calcium mobilization assay relative to CP55940; type: functional, cell-based
Cannabinoid receptor 1 [4] = biological target: T1, Cannabinoid receptor 1; test: Agonist activity at human CB1 receptor expressing CHO cells co-expressing Galpha16 by calcium mobilization assay relative to CP55940; type: functional, cell-based
in vitro [5] = conditions: human, liver microsomes
in vitro [6] = conditions: human, liver
Cannabinoid receptor 2 [7] = biological target: T2, Cannabinoid receptor 2; test: Antagonist activity at human CB2 receptor expressing CHO cells co-expressing Galpha16 assessed as inhibition of CP55940-induced calcium mobilization pre-incubated for 15 mins before CP55940 addition; type: functional, cell-based; conditions: for IC50: cho
in vitro [8] = conditions: human, liver microsomes; remark: listed apart in the source
Description: Half life in human liver microsomes at 1 uM in presence of NADPH by LC-MS/MS analysis

in vitro [9] = conditions: human, liver microsomes; remark: listed apart in the source
Description: Stability in human liver microsomes assessed as parent compound remaining at 1 uM incubated for 60 mins in presence of NADPH by LC-MS/MS analysis

Cannabinoid receptor 1 [10] = biological target: T1, Cannabinoid receptor 1; test: Agonist activity at human CB1 receptor expressing CHO cells co-expressing Galpha16 at 10 uM by calcium mobilization assay; type: functional, cell-based; conditions: filed as agonist
Cannabinoid receptor 1 [11] = biological target: T1, Cannabinoid receptor 1; test: Induction of receptor desensitization at human CB1 receptor expressing CHO cells co-expressing Galpha16 at 10 uM followed by washing with HBSS buffer upon incubation for 10 mins and restimulated with CP55940 by calcium mobilization assay; type: functional, cell-based; conditions: filed as agonist
Cannabinoid receptor 1 [12] = biological target: T1, Cannabinoid receptor 1; test: Agonist activity at CB1 receptor (unknown origin) relative to control; conditions: filed as agonist
Cannabinoid receptor 1 [13] = biological target: T1, Cannabinoid receptor 1; test: Agonist activity at CB1 receptor (unknown origin)
Cannabinoid receptor 2 [14] = biological target: T2, Cannabinoid receptor 2; test: Agonist activity at CB2 receptor (unknown origin) relative to control; conditions: filed as agonist

SMILES | pEC50 (Cannabinoid receptor 1 [1]) | pEC50 (Cannabinoid receptor 2 [2]) | Emax (Cannabinoid receptor 2 [3]; filed as agonist) [%] | Emax (Cannabinoid receptor 1 [4]; filed as agonist) [%] | also measured
CC(C)(CO)NC(=O)c1cc(C(C)(C)C)n(-c2ccccc2)n1 | 4.00 | 4.00 |  |  | 
CCCCCn1nc(C(C)(C)C)cc1C(=O)NCc1ccc(Cl)cc1 | 4.00 | 4.00 |  |  | 
CC(C)(CO)NC(=O)c1cc(C(C)(C)C)n(-c2ccccn2)n1 | 4.00 | 5.41 | 80 |  | 
CCCCCn1nc(C(=O)NC2CCCCC2)cc1C(C)(C)C | 6.98 | 7.34 | 80 | 50 | 
CC(C)(CO)NC(=O)c1cc(C(C)(C)C)n(-c2ccc(C(F)(F)F)cc2)n1 | 4.00 | 4.00 |  |  | 
CC(C)(CO)NC(=O)c1cc(C(C)(C)C)n(-c2ccc(Cl)cc2)n1 | 4.00 | 6.69 | 100 |  | 
O=C(O)Cc1ccccc1Nc1c(Cl)cccc1Cl [DICLOFENAC] |  |  |  |  | microsomal CLint at 1 µM (in vitro [5]): 129 µL/min/mg; CLint scaled at 1 µM (in vitro [6]): 116 mL/min/kg
CCCCCn1nc(C(=O)NC(C)(C)CO)c(Cl)c1C(C)(C)C | 7.47 | 8.47 | 100 | 50 | IC50 (Cannabinoid receptor 2 [7]): Not Active
CCCCCn1nc(C(=O)Nc2ccncc2)cc1C(C)(C)C | 6.66 | 6.93 | 60 |  | Emax (Cannabinoid receptor 1 [4]): 30%
CCCCCn1nc(C(=O)NC23CC4CC(CC(C4)C2)C3)cc1C(C)(C)C | 6.57 | 6.71 |  |  | Emax (Cannabinoid receptor 1 [4]; filed as partial agonist): 69%; Emax (Cannabinoid receptor 2 [3]; filed as partial agonist): 58%
CCCCCn1nc(C(=O)NC(C)(C)C)cc1C(C)(C)C | 8.14 | 7.92 | 100 | 100 | 
CC(C)(CO)NC(=O)c1cc(C(C)(C)C)n(-c2cccnc2)n1 | 4.00 | 4.00 |  |  | 
CC(C)(CO)NC(=O)c1cc(C(C)(C)C)n(-c2ccc(OC(F)(F)F)cc2)n1 | 4.00 | 4.00 |  |  | 
CCCCCn1nc(C(=O)NCc2ccc(Cl)cc2)cc1C(C)(C)C | 4.00 | 4.00 |  |  | 
CCCCCn1nc(C(C)(C)C)cc1C(=O)NC12CC3CC(CC(C3)C1)C2 | 4.00 | 4.00 |  |  | 
CCCCCn1nc(C(=O)N[C@@H](C(=O)OC)C(C)(C)C)cc1C(C)(C)C | 8.37 | 7.58 | 100 | 100 | 
CC(C)(CO)NC(=O)c1cc(C(C)(C)C)n(-c2ccc(F)cc2)n1 | 4.00 | 6.16 | 82 |  | 
CC(C)(CO)NC(=O)c1cc(C(C)(C)C)n(CCCF)n1 | 4.00 | 6.73 | 100 |  | 
CC(C)(CO)NC(=O)c1cc(C(C)(C)C)n(-c2ncc(C(F)(F)F)cc2Cl)n1 | 4.00 | 4.00 |  |  | 
CCCCCn1nc(C(C)(C)C)cc1C(=O)NC(C)(C)C | 4.00 | 6.52 | 80 |  | 
CCCn1nc(C(=O)NC(C)(C)CO)cc1C(C)(C)C | 4.00 | 6.68 | 100 |  | 
CCCCCn1nc(C(C)(C)C)cc1C(=O)NC12CC3CC(CC(O)(C3)C1)C2 | 4.00 | 4.00 |  |  | 
CCCCCn1nc(C(=O)Nc2ccc(Cl)cc2)cc1C(C)(C)C | 4.00 | 5.63 | 80 |  | 
CCCCCn1nc(C(=O)N[C@@H](C(=O)OC)C(C)C)cc1C(C)(C)C | 8.80 | 8.13 | 90 | 90 | half-life at 1 µM (in vitro [8]): 11.8 min; microsomal CLint at 1 µM (in vitro [5]): 117 µL/min/mg; CLint scaled at 1 µM (in vitro [6]): 105 mL/min/kg; remaining at 1 h, 1 µM (in vitro [9]): 2.9%
CCCCCn1nc(C(=O)NC23CC4CC(CC(O)(C4)C2)C3)cc1C(C)(C)C | 8.40 | 4.00 |  | 100 | 
CCCCCn1nc(C(=O)NC(C)(C)CO)cc1C(C)(C)C | 7.76 | 8.54 | 100 | 100 | half-life at 1 µM (in vitro [8]): 22.2 min; microsomal CLint at 1 µM (in vitro [5]): 62.4 µL/min/mg; CLint scaled at 1 µM (in vitro [6]): 56.1 mL/min/kg; remaining at 1 h, 1 µM (in vitro [9]): 14.9%
CCCCCn1nc(C(=O)NC(C)(C)CO)cc1C(C)C | 6.77 | 7.41 | 70 | 90 | IC50 (Cannabinoid receptor 2 [7]): Not Active

SMILES | pEC50 (Cannabinoid receptor 1 [1]) | pEC50 (Cannabinoid receptor 2 [2]) | Emax (Cannabinoid receptor 2 [3]; filed as agonist) [%] | Emax (Cannabinoid receptor 1 [4]; filed as agonist) [%] | also measured
COCCn1nc(C(=O)NC(C)(C)CO)cc1C(C)(C)C | 4.00 | 4.00 |  |  | 
CCCCn1nc(C(=O)NC(C)(C)CO)cc1C(C)(C)C | 7.00 | 8.00 | 100 | 90 | 
Cc1ccc(-n2nc(C(=O)NC(C)(C)CO)cc2C(C)(C)C)cc1 | 4.00 | 6.70 | 40 |  | 
CCCCCn1nc(C(=O)NC(C)(C)CO)cc1CC(C)(C)C | 7.57 | 7.92 | 50 | 90 | IC50 (Cannabinoid receptor 2 [7]): Not Active
CCCCCn1nc(C(=O)N[C@H](C(=O)OC)C(C)C)cc1C(C)(C)C | 7.58 | 8.14 | 100 | 70 | 
CC(C)(CO)NC(=O)c1cc(C(C)(C)C)n(-c2ccc(F)cn2)n1 | 4.00 | 6.87 | 100 |  | 
CC(C)(CO)NC(=O)c1cc(C(C)(C)C)n(-c2ccc(Cl)cn2)n1 | 4.00 | 5.14 | 50 |  | 
C[C@]12CC[C@H]3[C@@H](CCC4=CC(=O)CC[C@@]43C)[C@@H]1CC[C@@H]2O [TESTOSTERONE] |  |  |  |  | half-life at 1 µM (in vitro [8]): 18.8 min; microsomal CLint at 1 µM (in vitro [5]): 73.6 µL/min/mg; CLint scaled at 1 µM (in vitro [6]): 66.3 mL/min/kg; remaining at 1 h, 1 µM (in vitro [9]): 10.7%
COc1ccc(-n2nc(C(=O)NC(C)(C)CO)cc2C(C)(C)C)cc1 | 4.00 | 4.00 |  |  | 
CCCCCn1nc(C(=O)NC(C)(C)CO)c(Br)c1C(C)(C)C | 7.57 | 8.70 | 100 | 50 | IC50 (Cannabinoid receptor 2 [7]): Not Active
CCCCCn1nc(C(=O)NC(C)(C)CO)cc1-c1ccc(F)cc1F | 4.00 | 4.00 |  |  | pIC50 (Cannabinoid receptor 2 [7]; read-out: IC50): 7.06; half-life at 1 µM (in vitro [8]): 21.4 min; microsomal CLint at 1 µM (in vitro [5]): 64.6 µL/min/mg; CLint scaled at 1 µM (in vitro [6]): 58.2 mL/min/kg; remaining at 1 h, 1 µM (in vitro [9]): 14.1%
CC(C)(CO)NC(=O)c1cc(C(C)(C)C)n(CC2CC2)n1 | 5.31 | 6.99 | 100 |  | Emax (Cannabinoid receptor 1 [4]): 20%
CC(C)(CO)NC(=O)c1cc(C(C)(C)C)n(CCCCF)n1 | 5.54 | 7.18 | 100 | 100 | 
CCCCCn1nc(C(=O)NC(C)(C)CO)cc1C(F)(F)F | 6.73 | 7.27 | 80 | 80 | IC50 (Cannabinoid receptor 2 [7]): Not Active
CCCCCn1nc(C(C)(C)C)cc1C(=O)Nc1ccc(Cl)cc1 | 4.00 | 4.00 |  |  | 
CCCCCn1nc(C(=O)NC(C)(C)CO)c(N)c1C(C)(C)C | 6.71 | 8.26 | 100 | 80 | IC50 (Cannabinoid receptor 2 [7]): Not Active; half-life at 1 µM (in vitro [8]): 13.3 min; microsomal CLint at 1 µM (in vitro [5]): 104 µL/min/mg; CLint scaled at 1 µM (in vitro [6]): 94 mL/min/kg; remaining at 1 h, 1 µM (in vitro [9]): 4.6%
CCCCCn1nc(C(=O)NC(C)(C)CO)cc1C1CC1 | 4.00 | 4.00 |  |  | IC50 (Cannabinoid receptor 2 [7]): Not Active
CCCCCn1nc(C(=O)NC(C)(C)CO)cc1C1CCCCC1 | 4.00 | 4.00 |  |  | IC50 (Cannabinoid receptor 2 [7]): Not Active
CCCCCn1nc(C(=O)NC(C)(C)CO)c([N+](=O)[O-])c1C(C)(C)C | 6.89 | 7.88 | 70 | 100 | IC50 (Cannabinoid receptor 2 [7]): Not Active
CCCCCCC(C)(C)c1ccc([C@@H]2C[C@H](O)CC[C@H]2CCCO)c(O)c1 [CP-55940] |  |  |  |  | IC50 (Cannabinoid receptor 2 [7]): Not Active; Activity (Cannabinoid receptor 1 [10]): Active; Activity (Cannabinoid receptor 1 [11]): Active
CC(C)(CO)NC(=O)c1cc(C(C)(C)C)n(-c2ncccn2)n1 | 4.00 | 4.00 |  |  | 
CC(C)(CO)NC(=O)c1cc(C(C)(C)C)n(CCCCCF)n1 | 7.37 | 7.44 | 70 | 90 | 
CCCCCn1cc(C(=O)NC23CC4CC(CC(C4)C2)C3)c2ccccc21 |  |  |  |  | Emax (Cannabinoid receptor 1 [12]): 98%; pEC50 (Cannabinoid receptor 1 [13]): 7.47; Emax (Cannabinoid receptor 2 [14]): 91%
CC(C)(CO)NC(=O)c1cc(C(C)(C)C)n(-c2ccc(F)cc2F)n1 | 4.00 | 5.76 | 80 |  | 
CCCCCCn1nc(C(=O)NC(C)(C)CO)cc1C(C)(C)C | 7.33 | 7.87 | 100 | 100 | 
CCCCCn1nc(C(C)(C)C)cc1C(=O)NC(C)(C)CO | 4.00 | 6.50 | 80 |  | 
